Test results taken from paper PMC6820371, “Terbium-161 for PSMA-targeted radionuclide therapy of prostate cancer” (European Journal of Nuclear Medicine and Molecular Imaging, 2019).

Tests used:
PC-3 PIP tumor cells [1] = test: Cell viability assay (MTT assay); format: cell-based, human; details: DTPA complexes, 0.01–20 MBq/mL; marginal reduction at higher concentration
Procedure: The detailed methods of these studies, including dosimetric calculations, are described in the Supplementary material. The results were analyzed for statistical significance by a two-way ANOVA with Sidak’s multiple comparison post-test using Graph Pad Prism (version 7).
Methods: Tumor cell viability was assessed using a 3-(4,5-dimethylthiazol-2-yl)-2,5-diphenyltetrazolium bromide (MTT) assay as described by Mosmann. PC-3 PIP tumor cells (2500 cells in 200 μL RPMI medium with supplements) were seeded in 96-well plates and incubated overnight (37°C; 5% CO2) to allow adhesion of the tumor cells. The supernatants were removed and the tumor cells were washed once with 200 μL PBS. Afterwards, the tumor cells were incubated in 200 μL RPMI medium (without supplements) containing ^161Tb-PSMA-617 or ^177Lu-PSMA-617 (0.01‒20 MBq/mL), respectively, or just RPMI medium without addition of radioligands. PSMA-negative PC-3 flu tumor cells were also treated with these radioligands under the same experimental conditions using the same concentration range. Additional cell viability assays were performed with PC-3 PIP tumor cells incubated with RPMI medium (without supplements) containing ^161Tb-diethylenetriaminepentaacetic acid (DPTA) or ^177Lu-DTPA (0.01 – 20 MBq/mL). After 4 h incubation (37 °C; 5% CO2), the tumor cells were washed once with 200 μL PBS, followed by the addition of 200 μL of RPMI medium (with supplements) to each well. The tumor cells were left to grow for 6 days under standard cell culture conditions (37 °C, 5% CO2). At Day 6 after treatment, MTT reagent (5 mg/mL in PBS, 30 μL per well) was added to each well to allow the formation of dark-violet formazan crystals within 4 h incubation. The crystals were dissolved by the addition of dimethyl sulfoxide to determine the absorbance at 560 nm using a microplate reader (Victor X3, Perkin Elmer). Cell viability was quantified by expressing the absorbance of the test samples as percentage of the absorbance of control (untreated) cell samples which was set to 100%. Statistical analysis was performed using a two-way ANOVA with Sidak’s multiple comparison post-test in Graph Pad Prism (version 7).

PC-3 PIP tumor cells [2] = test: Cell survival assay (clonogenic assay); format: cell-based, human; details: DTPA complexes, 0.01–10 MBq/mL; marginal reduction at higher concentration
[3] = design: method as in Benešová et al. [4]; details: PBS pH 7.4; ref Benešová et al. [4]; cited from earlier work
[4] = design: method as in Benešová et al. 2018 [4]; details: saline, in the presence of l-ascorbic acid, up to 24 h; ref Benešová et al. 2018 [4]; cited from earlier work
[5] = tested on: mice inoculated with PC-3 PIP cells; test: Additional therapy study (injection 2 days after tumor cell inoculation); format: in vivo; details: for Median Survival: control 26 days
Procedure: The day of the treatment, two days after tumor cell inoculation, was defined as Day 0 of the study (Table S7).
Endpoint criteria: The mice were monitored until they reached an endpoint (definition of endpoints, see Chapter 13) or over the whole period of 38 days when the study was terminated.
Data analysis of the therapy study: The tumor growth delay indices (TGDI2 and TGDI5) were calculated as reported in the Methods of the main manuscript. The median survival was determined using GraphPad Prism software (version 7).

[6] = tested on: PSMA-negative PC-3 flu tumor cells; test: Tumor cell uptake and internalization; format: cell-based; details: 2–4 h incubation
[7] = tested on: PC-3 PIP tumor-bearing mice; design: method as in PMID 29684274; details: 5.0 MBq; cited from earlier work
[8] = tested on: PSMA-positive PC-3 PIP tumor cells; test: Tumor cell uptake and internalization; format: cell-based, human; details: 2–4 h incubation

O=C([O-])CN(CCN(CC(=O)[O-])CC(=O)[O-])CCN(CC(=O)[O-])CC(=O)[O-].[161Tb+3] [^161Tb-DPTA, ^161Tb-diethylenetriaminepentaacetic acid, reference compound]
Viability of PC-3 PIP tumor cells (PC-3 PIP tumor cells [1]): not affected | Survival of PC-3 PIP tumor cells (PC-3 PIP tumor cells [2]): not affected

O=C([O-])CN(CCN(CC(=O)[O-])CC(=O)[O-])CCN(CC(=O)[O-])CC(=O)[O-].[177Lu+3] [^177Lu-DTPA, reference compound]
Viability of PC-3 PIP tumor cells (PC-3 PIP tumor cells [1]): not affected | Survival of PC-3 PIP tumor cells (PC-3 PIP tumor cells [2]): not affected

O=C([O-])CN1CCN(CC(=O)[O-])CCN(CC(=O)NCC2CCC(C(=O)N[C@@H](Cc3ccc4ccccc4c3)C(=O)NCCCC[C@H](NC(=O)N[C@@H](CCC(=O)O)C(=O)O)C(=O)O)CC2)CCN(CC(=O)[O-])CC1.[177Lu+3] (stereo partly shown) [^177Lu-PSMA-617, reference compound]
n-octanol/PBS distribution coefficient (logD value) [3]: –4.4 ± 0.1 | Stability (intact radioligand) [4]: ≥ 98% | First mouse euthanized ([5]; 2.5 MBq): 20 days | TGDI2 ([5]; 2.5 MBq): 0.8 ± 0.4 | TGDI5 ([5]; 2.5 MBq): 1.0 ± 0.3 | Median Survival ([5]; 2.5 MBq): 27 days | Last mouse euthanized ([5]; 2.5 MBq, study end Day 38): study end | First mouse euthanized ([5]; 5.0 MBq): 24 days | TGDI2 ([5]; 5.0 MBq): 1.0 ± 0.4 | Median Survival ([5]; 5.0 MBq): 30 days | Last mouse euthanized ([5]; 5.0 MBq, study end Day 38): study end | Survival ([5]; 10 MBq): survived until the end of the study at Day 38 | Cases in which tumors started to regrow ([5]; 10 MBq, from about Day 20 on): 50% | First mouse euthanized ([5]; 10 MBq, study end Day 38): Study end | Last mouse euthanized ([5]; 10 MBq, study end Day 38): study end | Uptake in PC-3 flu tumor cells [6]: < 0.5% | Last mouse euthanized [7]: 40 days | Median Survival [7]: 32 days | TGDI2 [7]: 2.1 ± 0.3 | PC-3 PIP tumor cell uptake [8]: 49–58% | Internalized fraction ([8]; PC-3 PIP): 9–12%
